Laboratory results reported in patent US6015820A, “4-Aryl-thio-pyridin-2(1H)-ones, medicines containing them and their uses in the treatment of illnesses linked to HIV” (priority 1995, dated 2000).

Key:
HIV-1 LAI = assay: anti-HIV-1 activity: replication of HIV-1 LAI on CEM-SS cells; assay type: cell-based; conditions: Table 2, HIV-1 LAI, CEM-SS cells; for IC50: Human immunodeficiency virus 1, 120 h, 5 days, read-out: IC50, anti-HIV-1 activity
Procedure: (§1) The CEM-SS and the HIV-1 resistant to Nevirapine (N119) carrying a point mutation at codon 181 of the IT, were supplied respectively by P. NARA and D. RICHMAN through the intermediary of the AIDS Research and Reference Reagent Program, Division of AIDS, NIAID, NIH (USA) (Catalogue references : No. 776 and No. 1392).
(§2) The virus production was measured by quantifying the activity of the inverse transcriptase associated with viral particles released into the culture supernatant. In short, cells were infected with 100 TCID50 for 30 minutes; after adsorption of the virus, unbound particles were removed by two washings and the cells were cultivated in the presence of different concentrations of the compounds tested for 5 days before determining the viral production. The concentration inhibiting 50% of the viral multiplication (IC50) came from the computer plot of the median effect of the dose effect results (Chou et al. Elsevier Science Publishers, Cambridge U.K. (1985), 19-28).

[1] = cytotoxicity on non-infected cells (MTT test); assay type: cell-based; conditions: human; Table 2; non-infected CEM-SS cells, MTT, 5 days
Procedure: (§3) In parallel experiments, the cytotoxicity of the molecules was measured on non-infected cells, after an incubation of 5 days in the presence of these molecules, by using a […] titration (MTT test) based on the ability of the mitochondrial dehydrogenases of the living cells to reduce 3-(4,5-dimethylthiazol-2-yl)-2,5-diphenyltetrazolium bromide in formazan (Mosmann et al. J. Immunol. Methods ([…]), 65, 55-63). The concentration cytotoxic at 50% (CC50) is the concentration at which the DO540 has been reduced to half and is calculated by using the program mentioned above.

CEM-SS cells = assay: cytotoxicity on non-infected cells (MTT test); assay type: cell-based; conditions: Table 3; non-infected cells, MTT, 5 days
Procedure: as §3

[2] = tested on: HIV-1 resistant to Nevirapine (N119); assay: microbe, parasite or virus in culture; assay type: cell-based; conditions: for IC50: Human immunodeficiency virus 1, CEM-SS, read-out: IC50, strain resistant to Nevirapine; for SI (selectivity index): Table 3, strain resistant to Nevirapine
Procedure: as §1, with “The effects of the compounds were evaluated on the replication of HIV-1 (see Table 2) on CEM-SS cells (cell lines of the lymphocytic lineage) strongly infected with HIV-1 LAI as described by Moog et al. (Antiviral Research (1994), 24, 275-288). The” for “The”
as §2

IT of recombinant HIV-1 = biological target: T1, IT of recombinant HIV-1 (Human immunodeficiency virus type 1 group M subtype B, UniProt P03369); assay: inhibition of the inverse transcriptase of recombinant HIV-1; assay type: biochemical
T1 construct: purify the IT enzyme of the recombinant HIV-1; made in house; host or cells: yeast cells transformed with the pAB 24/IT-4 vector
Procedure: Yeast cells transformed with the pAB 24/IT-4 vector were used to purify the IT enzyme of the recombinant HIV-1 as described by Sallafranque-Andreola et al. (1989 Eur. J. Biochem. 184, 364-374).
(§4) Incubation was carried out at 37° C. for 10 minutes in the presence of various matrix-primers.
(§5) a) Poly C-oligo dG: the reaction mixture contained a final volume of 0.05 ml, Tris-HCl 50 mM pH 8.0, MgCl2 5 mM, dithiothreitol 4 mM, 0.48 A260 /ml of poly C-oligo dG (5:1), 1.0 μCi of [^3 H]dGTP (28 Ci/mmole), dGTP 2 μM, KCl 80 mM, 1 μg of bovine serum albumin and IT 20-50 nM.
(§6) b) Poly A-oligo dT: the same conditions as in a), except that 0.48 A260 /ml of poly A-oligo dT (5:1), 0.5 μCi of [^3 H]dTTP (46 Ci/mmole), dTTP 20 μM were used.
(§7) The reactions were stopped by adding in the cold 1 ml of 10% trichloroacetic acid plus sodium pyrophosphate 0.1 M. The precipitates were filtered through nitrocellulose membranes, washed with 2% trichloroacetic acid, dried and counted in a PPO/POPOP/toluene scintillation mixture.
(§8) All the compounds were dissolved in dimethyl#sulphoxide (DMSO). The test samples were prepared in the presence of the same final concentration of DMSO. IC50 is the concentration required to inhibit the activity of the IT of the recombinant HIV-1 by 50%.

IT of HIV-2 = IT of HIV-2 (Human immunodeficiency virus type 2 (ISOLATE ROD), UniProt P04584); assay: inhibition of the inverse transcriptase of HIV-2; assay type: biochemical; conditions: at concentrations at which the IT of HIV-1 was well inhibited (FIG. 9)
Chain of IT of HIV-2 (P04584 613-1171): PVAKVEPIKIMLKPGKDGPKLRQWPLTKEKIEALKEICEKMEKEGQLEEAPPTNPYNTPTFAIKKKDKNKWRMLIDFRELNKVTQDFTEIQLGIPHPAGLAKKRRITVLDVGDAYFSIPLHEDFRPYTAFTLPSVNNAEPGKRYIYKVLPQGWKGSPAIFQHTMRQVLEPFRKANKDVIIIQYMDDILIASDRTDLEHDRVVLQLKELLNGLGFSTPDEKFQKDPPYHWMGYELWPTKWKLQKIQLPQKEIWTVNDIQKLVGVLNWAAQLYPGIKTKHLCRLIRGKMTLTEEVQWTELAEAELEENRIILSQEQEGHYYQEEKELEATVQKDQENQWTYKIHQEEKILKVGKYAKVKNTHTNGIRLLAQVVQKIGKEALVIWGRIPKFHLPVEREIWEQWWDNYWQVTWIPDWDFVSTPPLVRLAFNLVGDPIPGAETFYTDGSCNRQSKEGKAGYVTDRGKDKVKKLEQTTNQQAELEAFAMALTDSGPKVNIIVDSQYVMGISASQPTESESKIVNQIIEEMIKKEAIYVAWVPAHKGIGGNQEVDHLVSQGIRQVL
Procedure: The system for the expression of the IT of HIV-2 in E.coli (B. Muller et al. (1991 J. Biol. Chem. 266, 14708-14713) was provided by Dr. R. Goody. The IT of the HIV-2 was purified in the same way as the IT of the HIV-1.
as §4, §5, §6, §7, §8

[3] = biological target: inverse transcriptase of HIV-1 (HIV-1 M:B_ARV2/SF2, UniProt P03369); assay: enzymatic kinetic analysis of IT inhibition (Lineweaver-Burk); assay type: biochemical
Procedure: FIG. 12 is a double-reciprocal (Lineweaver-Burk) representation of the inhibition of the inverse transcriptase of HIV-1 by compound 7c with the poly C-oligo dG as a matrix-primer couple and dGPT as substrate.
FIG. 13 is a double-reciprocal representation, similar to […], in which the poly A-oligo dT is used as a matrix-primer couple and dTTP as substrate.
as §4, §5, §6, §7

| SMILES | IC50 (HIV-1 LAI) [nM] | SI (selectivity index) (HIV-1 LAI) | CC50 at 120 h [1] [nM] | CC50 (CEM-SS cells) [nM] | IC50 [2] [nM] | SI (selectivity index) [2] | IC50 (IT of recombinant HIV-1) [nM] | effect on activity of the IT of HIV-1 in HIV-1/HIV-2 comparison (IT of recombinant HIV-1; FIG. 9) | IT inhibition according to matrix-primer couple (IT of recombinant HIV-1; poly C-oligo dG compared with poly A-oligo dT (FIG. 9)) | effect on activity of the IT of HIV-2 (IT of HIV-2) | type of inhibition ([3]; as regards dGTP substrate, poly C-oligo dG matrix-primer (FIG. 12)) | type of inhibition ([3]; poly A-oligo dT matrix-primer, dTTP substrate (FIG. 13)) |
| --- | --- | --- | --- | --- | --- | --- | --- | --- | --- | --- | --- | --- |
| CCc1c(C)nc(O)c(N)c1Sc1cc(C)cc(C)c1 [Compound 8c, 3-amino-5-ethyl-6-methyl-4-(3', 5'-dimethylphenyl)thio-pyridin-2(1H)-one] | 14 | > 714 | > 10000 | > 10000 | 2100 | > 4 | 15 | well inhibited | gave the same result | not affected | non-competitive | competitive |
| CCOC(=O)c1c(Sc2cc(C)cc(C)c2)c(CC)c(C)[nH]c1=O [Compound 15, 5-ethyl-6-methyl-3-carbethoxy-4-(3', 5'-dimethylphenyl)thio-pyridin-2(1H)-one] | 3 | > 3333 | > 10000 | > 10000 | 2200 | > 4.5 | 600 |  |  |  |  |  |
